The record followed here is US20100075960A1 (priority 2006, published 2010).

As a reminder, the IC50 is the concentration at which inhibition is half-maximal. A high value points to weaker potency.

The structures appear in SMILES notation. Where only a bound is given, the exact number is not on record here.

This experiment has as its system HCT116. Put plainly: Inhibition of cell proliferation, HCT116. Type of experiment: cell-based. The conditions noted are these: Homo sapiens, HCT-116; 72 h treatment; methylene blue or CellTiter-Glo. How it is done: II. Inhibition of Cell Proliferation by PLK1 Inhibitors.
Exponentially growing cell lines of different tumor origins, cultured in appropriate media containing 10% fetal bovine serum at 37° C. in a 5% CO2 incubator were plated in 96 or 384-well plates. Twenty four hours post-plating, cells were treated with different concentrations of test compounds ranging from 20 μM to 0.04 nM. Several wells were left untreated as a control. Seventy two hours post-treatment, cell numbers were determined using different techniques; 100 μl per well of methylene blue (Sigma M9140) (0.5% in 50:50 Ethanol:water), or 10-100 μl per well of CellTiter-Glo (Promega #G7573), depending on well size. For methylene blue staining, stain was incubated at room temperature for 30 minutes before plates were rinsed and dye solubilized in 1% N-lauroyl sarcosine, sodium salt, (Sigma L5125, in PBS). Plates were read on a microplate reader, measuring the OD at 620 nm. For CellTiter-Glo, plates were incubated at room temperature for 15 minutes and the chemiluminescent signal was read on the Victor V or Envison 2100 reader.
Percent inhibition of cell growth was expressed as percent proliferation relative to 100% proliferation (control). Concentration of test compound that inhibited 50% of cell growth (IC50) was determined by 4 parameter fit of data using XLfit, (value of no cell control was substracted from all samples for background). The data are shown in Table 1 and Table 2 below and represent a compilation of several different experiments each performed using the general parameters outlined above, although minor variations may have been employed in some instances, in Table 1 and Table 2, +=IC50>1 μM; ++=IC50 0.5-1 μM: +++=IC50<0.5 μM.
In general terms: ATP-based viability assays read luminescence as a measure of living cells.
The compound `Cc1ccc(-c2ccc3c(c2)ncn3-c2cc(O[C@H](C)c3cccc(OC4CCN(C)CC4)c3Cl)c(C(N)=O)s2)cn1` [Example 10, 3-[((1R)-1-[2-chloro-3-[(1-methyl-4-piperidinyl)oxy]phenyl}ethyl)oxy]-5-[5-(6-methyl-3-pyridinyl)-1H-benzimidazol-1-yl]-2-thiophenecarboxamide] showed an IC50 of less than 500 nM.

As for `C[C@@H](Oc1cc(-n2cnc3ccc(Br)cc32)sc1C(N)=O)c1cccc(OC2CCN(C)CC2)c1Cl` [Example 6, 5-(6-Bromo-1H-benzimidazol-1-yl)-3-[((1R)-1-{2-chloro-3-[(1-methyl-4-piperidinyl)oxy]phenyl}ethyl)oxy]-2-thiophenecarboxamide], the IC50 is less than 500 nM.

Take `C[C@@H](Oc1cc(-n2cnc3cc(Cl)ccc32)sc1C(N)=O)c1cccc(OC2CCN(CCN)CC2)c1Cl` [Example 22, 3-{[(1R)-1-(3-{[1-(2-aminoethyl)-4-piperidinyl]oxy}-2-chlorophenyl)ethyl]oxy}-5-(5-chloro-1H-benzimidazol-1-yl)-2-thiophenecarboxamide]: the IC50 was less than 500 nM.

As for `C[C@@H](Oc1cc(-n2cnc3ccccc32)sc1C(N)=O)c1cccc(OC2CCN(C)CC2)c1Cl` [Example 13, 5-(1H-benzimidazol-1-yl)-3-[((1R)-1-{2-chloro-3-[(1-methyl-4-piperidinyl)oxy]phenyl}ethyl)oxy]-2-thiophenecarboxamide], the IC50 is less than 500 nM.

Consider `CC(Oc1cc(-n2cnc3cc(-c4cnn(C)c4)ccc32)sc1C(N)=O)c1cccc(OC2CCN(C)CC2)n1` (racemic) [Example 82, (±)-3-[(1-{6-[(1-Methyl-4-piperidinyl)oxy]-2-pyridinyl)ethyl)oxy]-5-[5-(1-methyl-1H-pyrazol-4-yl)-1H-benzimidazol-1-yl]-2-thiophenecarboxamide], for which the IC50 is greater than 1000 nM.

Regarding `Cc1nnc(-c2ccc3c(c2)ncn3-c2cc(O[C@H](C)c3cccc(OC4CCNCC4)c3Cl)c(C(N)=O)s2)o1` [Example 87, 3-({(1R)-1-(2-Chloro-3-(4-piperidinyloxy)phenyl]ethyl}oxy)-5-[5-(5-methyl-1,3,4-oxadiazol-2-yl)-1H-benzimidazol-1-yl]-2-thiophenecarboxamide], the IC50 is less than 500 nM.

In the case of `C[C@@H](Oc1cc(-n2cnc3ccccc32)sc1C(N)=O)c1cccc(OC2CCNCC2)c1Cl` [Example 14, 5-(1H-Benzimidazol-1-yl)-3-({(1R)-1-[2-chloro-3-(4-piperidinyloxy)phenyl]ethyl}oxy)-2-thiophenecarboxamide], the half-maximal inhibitory concentration (IC50) was less than 500 nM.

`C[C@@H](Oc1cc(-n2cnc3cc(Cl)ccc32)sc1C(N)=O)c1ccc(F)c(OC2CCN(C)CC2)c1Cl` [Example 32, 5-(5-Chloro-1H-benzimidazol-1yl)-3-[((1R)-1-{2-chloro-4-fluoro-3-[(1-methyl-4-piperidinyl)oxy]phenyl}ethyl)oxy]-2-thiophenecarboxamide] showed an IC50 of less than 500 nM.

The compound `C[C@@H](Oc1cc(-n2cnc3cc(Cl)c(Cl)cc32)sc1C(N)=O)c1cccc(OC2CCN(C)CC2)c1Cl` [Example 72, 3-[((1R)-1-(2-chloro-3-[(1-methyl-4-piperidinyl)oxy]phenyl}ethyl)oxy]-5-(5,6-dichloro-1H-benzimidazol-1-yl)-2-thiophenecarboxamide] registered an IC50 of less than 500 nM.

In the case of `Cn1cc(-c2ccc3c(c2)ncn3-c2cc(OCc3cccc(OC4CCNCC4)c3)c(C(N)=O)s2)cn1` [Example 83, 5-[5-(1-Methyl-1H-pyrazol-4-yl)-1H-benzimidazol-1-yl]-3-({[3-(4-piperidinyloxy)phenyl]methyl}oxy)-2-thiophenecarboxamide], the IC50 was greater than 1000 nM.

In turn, `C[C@@H](Oc1cc(-n2cnc3cc(Br)ccc32)sc1C(N)=O)c1cccc(OC2CCN(C)CC2)c1Cl` [Example 51, 5-(5-Bromo-1H-benzimidazol-1-yl)-3-[((1R)-1-{2-chloro-3-[(1-methyl-4-piperidinyl)oxy]phenyl}ethyl)oxy]-2-thiophenecarboxamide] returned an IC50 of less than 500 nM.

`C[C@@H](Oc1cc(-n2cnc3ccc(CS(C)(=O)=O)cc32)sc1C(N)=O)c1cccc(OCC2CCCN2C)c1Cl` (stereo partly drawn) [Example 57] returned an IC50 greater than 1000 nM.

For the compound `CC(Oc1cc(-n2cnc3cc(-c4cnn(C)c4)ccc32)sc1C(N)=O)c1cccc(OC2CCN(C)CC2)c1F` (racemic) [Example 76, (±)-3-[(1-{2-Fluoro-3-[(1-methyl-4-piperidinyl)oxy]phenyl}ethyl)oxy]-5-[5-(1-methyl-1H-pyrazol-4-yl)-1H-benzimidazol-1-yl]-2-thiophenecarboxamide], the IC50 was less than 500 nM.

Turning to `C[C@@H](Oc1cc(-n2cnc3cc(-c4cnn(C)c4)ccc32)sc1C(N)=O)c1cccc(OC2CCN(CCF)CC2)c1Cl` [Example 29, 3-{[(1R)-1-(2-Chloro-3-{[1-(2-fluoroethyl)-4-piperidinyl]oxy}phenyl)ethyl]oxy}-5-[5-(1-methyl-1H-pyrazol-4-yl)-1H-benzimidazol-1-yl]-2-thiophenecarboxamide], the IC50 was less than 500 nM.

For `COc1cc2ncn(-c3cc(O[C@H](C)c4cccc(OCC5CCN(C)CC5)c4Cl)c(C(N)=O)s3)c2cc1OC` [Example 41, 5-[5,6-Bis(methyloxy)-1H-benzimidazol-1-yl]-3-{[(1R)-1-(2-chloro-3-{[(1-methyl-4-piperidinyl)methyl]oxy}phenyl)ethyl]oxy}-2-thiophenecarboxamide], the IC50 is less than 500 nM.

As to `CC(C)N1CCC(Oc2cccc([C@@H](C)Oc3cc(-n4cnc5cc(Cl)ccc54)sc3C(N)=O)c2Cl)CC1` [Example 24, 5-(5-Chloro-1H-benzimidazol-1-yl)-3-{[(1R)-1-(2-chloro-3-{[1-(1-methylethyl)-4-piperidinyl]oxy}phenyl)ethyl]oxy}-2-thiophenecarboxamide], the IC50 is less than 500 nM.

As to `CC(Oc1cc(-n2cnc3cc(-c4cnn(C)c4)ccc32)sc1C(N)=O)c1ccnc(OC2CCN(C)CC2)c1` (stereo not drawn) [Example 80], the IC50 is greater than 1000 nM.

On to `CC(Oc1cc(-n2cnc3cc(-c4cnn(C)c4)ccc32)sc1C(N)=O)c1cccc(OC2CCNCC2)n1` (racemic) [Example 81, (±)-5-[5-(1-Methyl-1H-pyrazol-4-yl)-1H-benzimidazol-1-yl]-3-({1-[6-(4-piperidinyloxy)-2-pyridinyl]ethyl}oxy)-2-thiophenecarboxamide], for which the IC50 is greater than 1000 nM.

Turning to `CC(Oc1cc(-n2cnc3cc(-c4cnn(C)c4)ccc32)sc1C(N)=O)c1ccnc(OC2CCNCC2)c1` (racemic) [Example 79, (±)-5-[5-(1-Methyl-1H-pyrazol-4-yl)-1H-benzimidazol-1-yl]-3-({1-[2-(4-piperidinyloxy)-4-pyridinyl]ethyl}oxy)-2-thiophenecarboxamide], the IC50 was greater than 1000 nM.

`C[C@@H](Oc1cc(-n2cnc3cc(Cl)ccc32)sc1C(N)=O)c1cccc(OC2CCN(CCF)CC2)c1Cl` [Example 21, 5-(5-Chloro-1H-benzimidazol-1-yl)-3-{[(1R)-1-(2-chloro-3-{[1-(2-fluoroethyl)-4-piperidinyl]oxy}phenyl)ethyl]oxy}-2-thiophenecarboxamide] gave an IC50 of less than 500 nM.

`C[C@@H](Oc1cc(-n2cnc3ccc(C#N)cc32)sc1C(N)=O)c1cccc(OC2CCNCC2)c1Cl` [Example 5, 3-{(1R)-1-[2-chloro-3-(piperidin-4-yloxy)phenyl]ethoxy}-5-(6-cyano-1H-benzimidazol-1-yl)thiophene-2-carboxamide] displayed an IC50 of less than 500 nM.
